Test results from patent publication US20150105252A1, “SUBSTITUTED PYRAZOLES AS HERBICIDES” (E I DU PONT DE NEMOURS AND COMPANY, priority 2013, published 2015).

Experiments:
[1] = system: velvetleaf; test: Test A postemergence; assay type: in vivo, Abutilon theophrasti
Outline: (§1)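 Growth medium: loam soil blended with sand. Preemergence treatment used a directed soil spray right after planting; postemergence treatment targeted seedlings at one to two leaves (2–10 cm height). Response was judged by eye relative to untreated plants about 10 days later on a 0–100 control scale.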

[2] = system: barnyardgrass; test: Test A postemergence; assay type: in vivo, Echinochloa crus-galli
Outline: as §1

[3] = system: foxtail, giant; test: Test A postemergence; assay type: in vivo, Setaria faberii
Outline: as §1

[4] = system: velvetleaf; test: Test A preemergence; assay type: in vivo, Abutilon theophrasti
Outline: as §1

[5] = system: wheat; test: Test A preemergence; assay type: in vivo, Triticum aestivum; conditions: preemergence
Outline: as §1

[6] = system: ducksalad; test: Test B flood; assay type: in vivo, Heteranthera limosa; conditions: 250 g ai/ha, visual rating on 0 to 100 scale (0 no effect, 100 complete control), 13 to 15 days
Outline: (§2)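 Paddy-water application: seedlings at 2-leaf stage, flood depth 3 cm maintained for the test duration. Evaluation after 13–15 days in the greenhouse by eye relative to controls; 0–100 scale.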

[7] = system: morningglory; test: Test A preemergence; assay type: in vivo, Ipomoea spp.
Outline: as §1

[8] = system: barnyardgrass; test: Test A preemergence; assay type: in vivo, Echinochloa crus-galli
Outline: as §1

[9] = system: sedge, umbrella; test: Test B flood; assay type: in vivo, Cyperus difformis; conditions: 250 g ai/ha, visual rating on 0 to 100 scale (0 no effect, 100 complete control), 13 to 15 days
Outline: as §2

[10] = system: corn; test: Test A postemergence; assay type: in vivo, Zea mays
Outline: as §1

[11] = system: morningglory; test: Test A postemergence; assay type: in vivo, Ipomoea spp.
Outline: as §1

[12] = system: corn; test: Test A preemergence; assay type: in vivo, Zea mays
Outline: as §1

[13] = system: pigweed; test: Test A postemergence; assay type: in vivo, Amaranthus retroflexus
Outline: as §1

[14] = system: foxtail, giant; test: Test A preemergence; assay type: in vivo, Setaria faberii
Outline: as §1

[15] = system: pigweed; test: Test A preemergence; assay type: in vivo, Amaranthus retroflexus
Outline: as §1

[16] = system: wheat; test: Test A postemergence; assay type: in vivo, Triticum aestivum
Outline: as §1

[17] = system: rice; test: Test B flood; assay type: in vivo, Oryza sativa; conditions: 250 g ai/ha, visual rating on 0 to 100 scale (0 no effect, 100 complete control), 13 to 15 days
Outline: as §2

[18] = system: barnyardgrass; test: Test B flood; assay type: in vivo, Echinochloa crus-galli; conditions: 250 g ai/ha, visual rating on 0 to 100 scale (0 no effect, 100 complete control), 13 to 15 days
Outline: as §2

[19] = system: crabgrass, large; test: Test A postemergence; assay type: in vivo, Digitaria sanguinalis
Outline: as §1

[20] = system: crabgrass, large; test: Test A preemergence; assay type: in vivo, Digitaria sanguinalis
Outline: as §1

[21] = Postemergence, 500 g ai/ha, visual rating after approx. 10 days, 0 to 100 scale (0 no effect, 100 complete control)
[22] = postemergence, 125 g ai/ha, about 10 days, visual rating on 0 to 100 scale (0 no effect, 100 complete control)
[23] = preemergence, 125 g ai/ha, visual injury, 0 to 100 scale, approx. 10 days
[24] = preemergence, 500 g ai/ha, visual injury after approx. 10 days, 0 to 100 scale (0 no effect, 100 complete control)
[25] = 125 g ai/ha, visual injury, 0 to 100 scale, approx. 10 days
[26] = 500 g ai/ha, visual injury after approx. 10 days, 0 to 100 scale (0 no effect, 100 complete control)
[27] = Preemergence, 500 g ai/ha, 0 to 100 scale, 0 no effect, 100 complete control

CCc1cc(C(=O)NOC)nn1Cc1ccnc(C(F)(F)F)c1 [Compound 99]
40: Barnyardgrass plant response rating [8, 23]
70: Pigweed plant response rating [13, 22] | Wheat plant response rating [16, 21]
20: Velvetleaf plant response rating [1, 22] | Barnyardgrass plant response rating [2, 22] | Wheat plant response rating [16, 22]
80: Velvetleaf plant response rating [4, 24]
50: Plant response rating, Ducksalad [6] | Corn plant response rating [10, 22] | Morningglory plant response rating [11, 22] | Corn plant response rating [12, 23]
75: Plant response rating, Sedge, Umbrella [9]
90: Velvetleaf plant response rating [1, 21] | Barnyardgrass plant response rating [2, 21] | Corn plant response rating [10, 21] | Corn plant response rating [12, 24] | Foxtail, Giant plant response rating [14, 23] | Pigweed plant response rating [15, 23]
10: Velvetleaf plant response rating [4, 23]
100: Foxtail, Giant plant response rating [3, 21] | Morningglory plant response rating [7, 24] | Barnyardgrass plant response rating [8, 24] | Morningglory plant response rating [11, 21] | Pigweed plant response rating [13, 21] | Foxtail, Giant plant response rating [14, 24] | Pigweed plant response rating [15, 24] | Crabgrass, Large plant response rating [19, 21] | Crabgrass, Large plant response rating [20, 23] | Crabgrass, Large plant response rating [20, 24]
0: Wheat plant response rating [5, 25] | Plant response rating, Rice [17] | Plant response rating, Barnyardgrass [18]
60: Foxtail, Giant plant response rating [3, 22] | Wheat plant response rating [5, 26] | Morningglory plant response rating [7, 23] | Crabgrass, Large plant response rating [19, 22]

CCc1cc(C(=O)NC2CC2)nn1Oc1ccnc(C(F)(F)F)c1 [Compound 83, N-cyclopropyl-5-ethyl-1-[[(2-trifluoromethyl)-4-pyridinyl]oxy]-1H-pyrazole-3-carboxamide]
40: Barnyardgrass plant response rating [2, 21] | Wheat plant response rating [16, 21]
70: Plant response rating, Sedge, Umbrella [9] | Corn plant response rating [10, 21] | Morningglory plant response rating [11, 21] | Foxtail, Giant plant response rating [14, 23]
30: Velvetleaf plant response rating [1, 21] | Velvetleaf plant response rating [1, 22] | Crabgrass, Large plant response rating [19, 22]
60: Foxtail, Giant plant response rating [3, 21] | Wheat plant response rating [5, 26] | Plant response rating, Ducksalad [6] | Corn plant response rating [12, 27] | Crabgrass, Large plant response rating [19, 21]
50: Morningglory plant response rating [7, 27]
0: Velvetleaf plant response rating [4, 23] | Wheat plant response rating [5, 25] | Wheat plant response rating [16, 22] | Plant response rating, Barnyardgrass [18]
100: Foxtail, Giant plant response rating [14, 27] | Pigweed plant response rating [15, 27] | Crabgrass, Large plant response rating [20, 27] | Crabgrass, Large plant response rating [20, 23]
20: Foxtail, Giant plant response rating [3, 22] | Morningglory plant response rating [11, 22] | Pigweed plant response rating [13, 21]
10: Barnyardgrass plant response rating ([2]; Postemergence, 125 g ai/ha, 0 to 100 scale, 0 no effect, 100 complete control) | Velvetleaf plant response rating [4, 27] | Morningglory plant response rating [7, 23] | Barnyardgrass plant response rating [8, 23] | Corn plant response rating [10, 22] | Corn plant response rating [12, 23] | Pigweed plant response rating [13, 22] | Plant response rating, Rice [17]
90: Barnyardgrass plant response rating [8, 27] | Pigweed plant response rating [15, 23]
